The target in this experiment is T1, Zcchc11 enzyme (Homo sapiens, UniProt Q5TAX3).
T1 construct: made in house; host or cells: HEK293 cells (Zcchc11); E. coli Rosetta II (LIN28A)
T1 sequence (Q5TAX3 212-1420): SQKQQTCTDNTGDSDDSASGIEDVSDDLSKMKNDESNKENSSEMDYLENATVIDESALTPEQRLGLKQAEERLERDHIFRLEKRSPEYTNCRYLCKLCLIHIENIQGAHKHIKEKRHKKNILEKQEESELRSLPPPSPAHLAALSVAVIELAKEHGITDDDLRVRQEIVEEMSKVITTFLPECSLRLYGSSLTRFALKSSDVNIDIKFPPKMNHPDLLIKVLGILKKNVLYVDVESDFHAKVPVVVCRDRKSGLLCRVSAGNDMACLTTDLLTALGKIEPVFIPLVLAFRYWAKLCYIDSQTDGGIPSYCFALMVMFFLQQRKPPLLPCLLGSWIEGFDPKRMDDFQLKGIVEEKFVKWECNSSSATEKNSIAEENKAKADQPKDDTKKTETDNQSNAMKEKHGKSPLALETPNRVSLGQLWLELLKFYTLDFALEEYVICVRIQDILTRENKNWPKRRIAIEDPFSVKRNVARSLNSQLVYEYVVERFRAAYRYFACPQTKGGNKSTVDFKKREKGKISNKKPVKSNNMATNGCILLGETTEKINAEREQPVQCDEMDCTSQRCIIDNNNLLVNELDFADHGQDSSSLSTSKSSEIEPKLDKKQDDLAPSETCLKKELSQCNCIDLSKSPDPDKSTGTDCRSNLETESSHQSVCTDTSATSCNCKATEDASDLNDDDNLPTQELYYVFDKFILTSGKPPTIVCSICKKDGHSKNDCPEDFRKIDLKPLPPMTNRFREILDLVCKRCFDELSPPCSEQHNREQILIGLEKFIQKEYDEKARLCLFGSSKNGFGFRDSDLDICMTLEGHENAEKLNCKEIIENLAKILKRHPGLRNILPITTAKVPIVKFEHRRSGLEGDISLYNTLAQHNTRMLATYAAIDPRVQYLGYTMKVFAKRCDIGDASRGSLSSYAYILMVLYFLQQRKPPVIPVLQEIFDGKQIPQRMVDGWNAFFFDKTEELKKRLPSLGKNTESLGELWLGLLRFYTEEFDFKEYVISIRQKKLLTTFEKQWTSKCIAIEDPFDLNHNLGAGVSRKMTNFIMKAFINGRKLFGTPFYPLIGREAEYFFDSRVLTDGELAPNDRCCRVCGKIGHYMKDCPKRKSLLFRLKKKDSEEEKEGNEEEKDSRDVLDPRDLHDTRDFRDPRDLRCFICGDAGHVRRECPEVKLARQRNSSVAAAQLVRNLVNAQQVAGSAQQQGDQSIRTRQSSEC
Put plainly: TUTase assay (Zcchc11 assay, Lin28a-dependent polyuridylation of pre-let-7). The format is biochemical. The settings on record: Lin28a-dependent Zcchc11 (Z11) TUTase activity; read-out: Potency Lin28a-dep Z11 IC50. Put shortly:
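HEK293-expressed human Zcchc11 (residues 212-1420, 0.2 nM) with 10 nM LIN28A and 2 nM 5′-fluorescein pre-let-7, preincubated 30 min at room temperature, pH 7.3. Started with 5 uM UTP; poly(U) tails quenched by 3′-rhodamine A20 probe, read kinetically. IC50 from early-rate four-parameter fit; no-UTP wells define 0%.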

pIC50: −log10 of the molar value. Some results are limits rather than exact numbers.

For the compound `COc1ccc(Cl)c(OC[C@H]2C[C@H]3C[C@H]3N2c2cc3c(cc2F)c(=O)c(C(=O)O)cn3-c2ccnc(N)c2)n1` [Compound 199, 1-(2-aminopyridin-4-yl)-7-((1R,3R,5R)-3-(((3-chloro-6-methoxy-pyridin-2-yl)oxy)methyl)-2-azabicyclo [3.1.0]hexan-2-yl)-6-fluoro-4-oxo-1,4-dihydro-quinoline-3-carboxylic acid], the negative logarithm of the IC50 (pIC50) (commonly the negative decadic logarithm of the IC50, by convention in mol/L) is at least 6.00. Take `CO/N=C1\C[C@H](COc2nc(OC)ccc2Cl)N(c2cc3c(cc2Cl)c(=O)c(C(=O)O)cn3-c2ccc(N3CC(N(C)C)C3)nc2)C1` [Compound 200, (R,E)-6-chloro-7-(2-(((3-chloro-6-methoxy-pyridin-2-yl)oxy)methyl)-4-(methoxyimino)pyrrolidin-1-yl)-1-(6-(3-(dimethyl-amino)azetidin-1-yl)pyridin-3-yl)-4-oxo-1,4-dihydro-quinoline-3-carboxylic acid]: the pIC50 was at least 6.00. For `COc1ccc(Cl)c(OC[C@H]2C[C@@H]3C[C@@H]3N2c2cc3c(cc2F)c(=O)c(C(=O)O)cn3-c2ccc(N3CC(N(C)C)C3)nc2)n1` [Compound 201, 7-((1S,3R,5S)-3-(((3-chloro-6-methoxy-pyridin-2-yl)oxy)methyl)-2-azabicyclo [3.1.0]hexan-2-yl)-1-(6-(3-(dimethyl-amino)azetidin-1-yl)pyridin-3-yl)-6-fluoro-4-oxo-1,4-dihydro-quinoline-3-carboxylic acid], the pIC50 is at least 6.00. As to `COc1ccc(Cl)c(OCC2C3CC(C3)N2c2cc3c(cc2Cl)c(=O)c(C(=O)O)cn3-c2ccc(N3CC(N(C)C)C3)nc2)n1` (stereo not drawn) [Compound 202, 6-chloro-7-(3-(((3-chloro-6-methoxy-pyridin-2-yl)oxy)methyl)-2-azabicyclo [2.1.1]hexan-2-yl)-1-(6-(3-(dimethyl-amino)azetidin-1-yl)pyridin-3-yl)-4-oxo-1,4-dihydro-quinoline-3-carboxylic acid], the pIC50 is at least 6.00. On to `CN(C)C1CN(c2ccc(-n3cc(C(=O)O)c(=O)c4cc(Cl)c(N5CCC[C@@H]5COc5nc6nc[nH]c6cc5Cl)cc43)cn2)C1` [Compound 204, (R)-6-chloro-7-(2-(((6-chloro-1H-imidazo [4,5-b]pyridin-5-yl)oxy)methyl)pyrrolidin-1-yl)-1-(6-(3-(dimethyl-amino)azetidin-1-yl)pyridin-3-yl)-4-oxo-1,4-dihydro-quinoline-3-carboxylic acid], for which the pIC50 was at least 6.00. For the compound `COc1ccc(Cl)c(OC[C@H]2CCCN2c2cc3c(cc2C)c(=O)c(C(=O)O)cn3-c2ccc(N3CC(N(C)C)C3)nc2)n1` [Compound 206, (R)-7-(2-(((3-chloro-6-methoxy-pyridin-2-yl)oxy)methyl)pyrrolidin-1-yl)-1-(6-(3-(dimethyl-amino)azetidin-1-yl)pyridin-3-yl)-6-methyl-4-oxo-1,4-dihydro-quinoline-3-carboxylic acid], the pIC50 was at least 6.00. Regarding `CN(C)CCn1cc(-n2cc(C(=O)O)c(=O)c3cc(C#N)c(N4CCC[C@@H]4COc4ncccc4Cl)cc32)cn1` [Compound 207], the pIC50 is at least 6.00. As for `Cc1cccnc1OC[C@H]1CCCN1c1cc2c(cc1F)c(=O)c(C(=O)O)cn2-c1ccc(N)nc1` [Compound 208, (R)-1-(6-aminopyridin-3-yl)-6-fluoro-7-(2-(((3-methylpyridin-2-yl)oxy)methyl)pyrrolidin-1-yl)-4-oxo-1,4-dihydro-quinoline-3-carboxylic acid], the pIC50 was at least 6.00. Turning to `Nc1cc(-n2cc(C(=O)O)c(=O)c3cc(Cl)c(N4CCC[C@@H]4COc4ncccc4Cl)cc32)ccn1` [Compound 209, (R)-1-(2-aminopyridin-4-yl)-6-chloro-7-(2-(((3-chloropyridin-2-yl)oxy)methyl)pyrrolidin-1-yl)-4-oxo-1,4-dihydro-quinoline-3-carboxylic acid], the pIC50 is at least 6.00. With `Cc1cccnc1OC[C@H]1CCCN1c1cc2c(cc1Cl)c(=O)c(C(=O)O)cn2-c1ccc(N)nc1` [Compound 210, (R)-1-(6-aminopyridin-3-yl)-6-chloro-7-(2-(((3-methylpyridin-2-yl)oxy)methyl)pyrrolidin-1-yl)-4-oxo-1,4-dihydro-quinoline-3-carboxylic acid] the figure was at least 6.00; with `O=C(O)c1cn(-c2cnccn2)c2cc(N3CCCCC3COc3ccccn3)c(Cl)cc2c1=O` (stereo not drawn) [Compound 211, 6-Chloro-4-oxo-1-(pyrazin-2-yl)-7-{2-[(pyridin-2-yloxy)methyl]piperidin-1-yl}quinoline-3-carboxylic acid], 5.00 to 6.00; with `Cc1cccnc1OC[C@H]1CCCN1c1cc2c(cc1Cl)c(=O)c(C(=O)O)cn2-c1cnccn1` [Compound 212, 6-Chloro-7-[(2R)-2-{[(3-methylpyridin-2-yl)oxy]methyl}pyrrolidin-1-yl]-4-oxo-1-(pyrazin-2-yl)quinoline-3-carboxylic acid], at least 6.00. In the case of `O=C(O)c1cn(-c2cnccn2)c2cc(N3CCC[C@@H]3COc3ncccc3F)c(Cl)cc2c1=O` [Compound 213, 6-Chloro-7-[(2R)-2-{[(3-fluoropyridin-2-yl)oxy]methyl}pyrrolidin-1-yl]-4-oxo-1-(pyrazin-2-yl)quinoline-3-carboxylic acid], the pIC50 is at least 6.00. The same measure for `Nc1ccc(-n2cc(C(=O)O)c(=O)c3cc(Cl)c(N4CCC[C@@H]4COc4ncccc4F)cc32)cn1` [Compound 214, 1-(6-Aminopyridin-3-yl)-6-chloro-7-[(2R)-2-{[(3-fluoropyridin-2-yl)oxy]methyl}pyrrolidin-1-yl]-4-oxoquinoline-3-carboxylic acid]: at least 6.00; for `O=C(O)c1cn(-c2ccc3c(c2F)CCN3)c2cc(N3CCC[C@@H]3COc3ccccn3)c(F)cc2c1=O` [Compound 216, 6-Fluoro-1-(4-fluoro-2,3-dihydro-1H-indol-5-yl)-4-oxo-7-[(2R)-2-[(pyridin-2-yloxy)methyl]pyrrolidin-1-yl]quinoline-3-carboxylic acid]: at least 6.00; for `N#Cc1cc2c(=O)c(C(=O)O)cn(-c3ccc(N)nc3)c2cc1N1CCC[C@@H]1COc1ncccc1F` [Compound 217]: at least 6.00. On to `COCCN(C)C1CN(c2ccc(-n3cc(C(=O)O)c(=O)c4cc(C#N)c(N5CCC[C@@H]5COc5ncccc5Cl)cc43)cn2)C1` [Compound 218, 7-[(2R)-2-[[(3-chloropyridin-2-yl)oxy]methyl]pyrrolidin-1-yl]-6-cyano-1-(6-[3-[(2-methoxyethyl) (methyl)amino]azetidin-1-yl]pyridin-3-yl)-4-oxoquinoline-3-carboxylic acid], for which the pIC50 is at least 6.00. `CN(C)C1CN(c2ccc(-n3cc(C(=O)O)c(=O)c4cc(Cl)c(N5CCC5COc5ccccn5)cc43)cn2)C1` (stereo not drawn) [Compound 219, 6-chloro-1-[6-[3-(dimethyl-amino)azetidin-1-yl]pyridin-3-yl]-4-oxo-7-[2-[(pyridin-2-yloxy)methyl]azetidin-1-yl]quinoline-3-carboxylic acid]: the pIC50 is 5.00 to 6.00. Regarding `CN(C)C1CN(c2ccc(-n3cc(C(=O)O)c(=O)c4cc(C#N)c(N5C(=O)CC[C@@H]5COc5ncccc5Cl)cc43)cn2)C1` [Compound 220, 7-[(2R)-2-[[(3-chloropyridin-2-yl)oxy]methyl]-5-oxopyrrolidin-1-yl]-6-cyano-1-[6-[3-(dimethyl-amino)azetidin-1-yl]pyridin-3-yl]-4-oxoquinoline-3-carboxylic acid], the pIC50 was 4.30 to 5.00. As for `CN(C)C1CN(c2ccc(-n3cc(C(=O)O)c(=O)c4cc(Cl)c(N5CC6CC5(COc5ncccc5Cl)C6)cc43)cn2)C1` [Compound 221, 6-chloro-7-(1-[[(3-chloropyridin-2-yl)oxy]methyl]-2-azabicyclo [2.1.1]hexan-2-yl)-1-[6-[3-(dimethyl-amino)azetidin-1-yl]pyridin-3-yl]-4-oxoquinoline-3-carboxylic acid], the pIC50 was 5.00 to 6.00. Turning to `CN(C)C1CN(c2ccc(-n3cc(C(=O)O)c(=O)c4cc(F)c(N5CCC[C@@H]5COc5ncccc5Cl)cc43)cn2)C1` [Compound 222, 7-[(2R)-2-[[(3-chloropyridin-2-yl)oxy]methyl]pyrrolidin-1-yl]-1-[6-[3-(dimethyl-amino)azetidin-1-yl]pyridin-3-yl]-6-fluoro-4-oxoquinoline-3-carboxylic acid], the pIC50 was at least 6.00.

(Values after patent US12662491B2 (Redona Therapeutics, Inc., priority 2020, dated 2026).)
